PMC7093416, “Selective USP7 inhibition elicits cancer cell killing through a p53-dependent mechanism” (Scientific Reports, 2020)

Test system: panel of 484 cancer cell lines
Assay: PRISM cancer cell line profiling, 5 days
Assay type: cell-based
Set-up: AUC: unit not given beside the values
Method: Cancer cell line profiling was performed using the Broad’s PRISM platform. Cell treatment and data analysis were performed as described in Yu et al[42]. Raw Luminex signal was converted to AUC values for each cell line as described. The resulting AUC profile for each compound was modeled against DepMap using the limma package in R[71]. Because hotspot mutation analysis was performed against DepMap, TP53 annotations in Fig. 6c,d are directly from DepMap.

## CN1CCN(CCC(=O)Nc2ccc3c(=O)n(CC4(O)CCN(C(=O)[C@@H](CCCNC(=O)c5ccc6c(Cl)c7c(nc6c5)CCCC7)Cc5ccccc5)CC4)cnc3c2)CC1 [XL177A]
RVH421_SKIN
  AUC: 0.7933
S117_SOFT_TISSUE
  AUC: 0.8952
SBC5_LUNG
  AUC: 1.121
SCABER_URINARY_TRACT
  AUC: 0.8461
SCC25_UPPER_AERODIGESTIVE_TRACT
  AUC: 0.7649
SF126_CENTRAL_NERVOUS_SYSTEM
  AUC: 1.059
SF295_CENTRAL_NERVOUS_SYSTEM
  AUC: 1.367
SF539_CENTRAL_NERVOUS_SYSTEM
  AUC: 0.7901
SH4_SKIN
  AUC: 0.8355
SH10TC_STOMACH
  AUC: 0.9409
SIMA_AUTONOMIC_GANGLIA
  AUC: 1.153
SJSA1_BONE
  AUC: 0.9454
SKES1_BONE
  AUC: 1.123
SKHEP1_LIVER
  AUC: 1.003
SKLU1_LUNG
  AUC: 1.145
SKMEL2_SKIN
  AUC: 1.16
SKMEL3_SKIN
  AUC: 1.119
SKMEL5_SKIN
  AUC: 1.147
SKMEL24_SKIN
  AUC: 1.297
SKMEL30_SKIN
  AUC: 0.992
SKMES1_LUNG
  AUC: 0.9519
SKNAS_AUTONOMIC_GANGLIA
  AUC: 1.0969
SKNBE2_AUTONOMIC_GANGLIA
  AUC: 1.099
SKOV3_OVARY
  AUC: 0.9025
SKUT1_SOFT_TISSUE
  AUC: 1.15
SNB75_CENTRAL_NERVOUS_SYSTEM
  AUC: 0.9344
SNGM_ENDOMETRIUM
  AUC: 1.144
SNU46_UPPER_AERODIGESTIVE_TRACT
  AUC: 1.075
SNU61_LARGE_INTESTINE
  AUC: 1.293
SNU81_LARGE_INTESTINE
  AUC: 1.343
SNU213_PANCREAS
  AUC: 0.7501
SNU245_BILIARY_TRACT
  AUC: 1.4902
SNU308_BILIARY_TRACT
  AUC: 1.159
SNU398_LIVER
  AUC: 0.9557
SNU407_LARGE_INTESTINE
  AUC: 0.9921
SNU410_PANCREAS
  AUC: 1.104
SNU423_LIVER
  AUC: 0.9049
SNU449_LIVER
  AUC: 1.072
SNU466_CENTRAL_NERVOUS_SYSTEM
  AUC: 0.6104
SNU601_STOMACH
  AUC: 1.062
SNU668_STOMACH
  AUC: 0.8134
SNU685_ENDOMETRIUM
  AUC: 0.8198
SNU719_STOMACH
  AUC: 0.6005
SNU738_CENTRAL_NERVOUS_SYSTEM
  AUC: 0.9451
SNU761_LIVER
  AUC: 1.358
SNU840_OVARY
  AUC: 0.9553
SNU869_BILIARY_TRACT
  AUC: 1.237
SNU886_LIVER
  AUC: 1.085
SNU1041_UPPER_AERODIGESTIVE_TRACT
  AUC: 1.036
SNU1066_UPPER_AERODIGESTIVE_TRACT
  AUC: 1.434
SNU1076_UPPER_AERODIGESTIVE_TRACT
  AUC: 1.032
SNU1077_ENDOMETRIUM
  AUC: 1.075
SNU1079_BILIARY_TRACT
  AUC: 1.101
SNU1105_CENTRAL_NERVOUS_SYSTEM
  AUC: 1.015
SNU1196_BILIARY_TRACT
  AUC: 1.095
SNU1214_UPPER_AERODIGESTIVE_TRACT
  AUC: 0.7181
SNUC2A_LARGE_INTESTINE
  AUC: 1.088
SNUC4_LARGE_INTESTINE
  AUC: 1.036
SNUC5_LARGE_INTESTINE
  AUC: 1.147
SQ1_LUNG
  AUC: 0.9875
SUIT2_PANCREAS
  AUC: 0.9816
SW480_LARGE_INTESTINE
  AUC: 1.095
SW579_THYROID
  AUC: 0.8837
SW620_LARGE_INTESTINE
  AUC: 1.161
SW780_URINARY_TRACT
  AUC: 0.8743
SW837_LARGE_INTESTINE
  AUC: 1.139
SW900_LUNG
  AUC: 1.083
SW948_LARGE_INTESTINE
  AUC: 1.148
SW1088_CENTRAL_NERVOUS_SYSTEM
  AUC: 1.163
SW1271_LUNG
  AUC: 1.0015
SW1353_BONE
  AUC: 0.7826
SW1573_LUNG
  AUC: 1.097
SW1710_URINARY_TRACT
  AUC: 0.9553
SW1990_PANCREAS
  AUC: 0.9791
T3M10_LUNG
  AUC: 1.003
T24_URINARY_TRACT
  AUC: 1.033
T47D_BREAST
  AUC: 1.05
T98G_CENTRAL_NERVOUS_SYSTEM
  AUC: 0.9138
TCCPAN2_PANCREAS
  AUC: 1.167
TCCSUP_URINARY_TRACT
  AUC: 1.301
TE1_OESOPHAGUS
  AUC: 1.2696
TE4_OESOPHAGUS
  AUC: 1.044
TE5_OESOPHAGUS
  AUC: 0.9519
TE6_OESOPHAGUS
  AUC: 0.8165
TE8_OESOPHAGUS
  AUC: 1.003
TE9_OESOPHAGUS
  AUC: 1.141
TE10_OESOPHAGUS
  AUC: 0.9335
TE11_OESOPHAGUS
  AUC: 1.05
TEN_ENDOMETRIUM
  AUC: 0.8216
TM31_CENTRAL_NERVOUS_SYSTEM
  AUC: 1.2102
TM87_SOFT_TISSUE
  AUC: 1.188
TOV21G_OVARY
  AUC: 0.5189
TOV112D_OVARY
  AUC: 1.085
TP53 annotation by functional scores of Giacomelli et al.
  mean diff. between TP53 functional WT and functional mutant populations (AUC): 0.072 ± 0.016
TT2609C02_THYROID
  AUC: 0.9464
TT_OESOPHAGUS
  AUC: 1.06
TT_THYROID
  AUC: 0.8609
TUHR4TKB_KIDNEY
  AUC: 1.102
U2OS_BONE
  AUC: 1.296
U118MG_CENTRAL_NERVOUS_SYSTEM
  AUC: 1.069
U251MG_CENTRAL_NERVOUS_SYSTEM
  AUC: 0.9403
UACC62_SKIN
  AUC: 0.9957
UACC257_SKIN
  AUC: 0.801
UBLC1_URINARY_TRACT
  AUC: 0.854
UMUC1_URINARY_TRACT
  AUC: 0.8933
UO31_KIDNEY
  AUC: 1.106
VMCUB1_URINARY_TRACT
  AUC: 0.9786
VMRCRCW_KIDNEY
  AUC: 1.013
VMRCRCZ_KIDNEY
  AUC: 1.099
WM88_SKIN
  AUC: 1.176
WM793_SKIN
  AUC: 1.125
WM983B_SKIN
  AUC: 1.093
WM1799_SKIN
  AUC: 0.5219
WM2664_SKIN
  AUC: 0.9262
YAPC_PANCREAS
  AUC: 1.218
YD8_UPPER_AERODIGESTIVE_TRACT
  AUC: 0.881
YD10B_UPPER_AERODIGESTIVE_TRACT
  AUC: 0.9499
YD15_SALIVARY_GLAND
  AUC: 0.7713
YD38_UPPER_AERODIGESTIVE_TRACT
  AUC: 0.8781
YH13_CENTRAL_NERVOUS_SYSTEM
  AUC: 0.9484
YKG1_CENTRAL_NERVOUS_SYSTEM
  AUC: 0.9563
ZR751_BREAST
  AUC: 0.7595
